Molecular target: KRas G12D (Homo sapiens (Human), UniProt P01116, G12D)
Test: KRas G12D Binding Assay (TR-FRET displacement of Cy5 labelled tracer)
Settings: GDP-loaded KRAS G12D (amino acids 1:169), 60 minute incubation at 22° C.
Method: After a 60 minute incubation at 22° C., the reaction was measured using a PerkinElmer EnVision multimode plate reader via TR-FRET dual wavelength detection, and the percent of control (POC) calculated using a ratiometric emission factor. […] The POC values were fit to a 4-parameter logistic curve and the IC50 value was determined as the concentration where the curve crosses 50 POC.
ND stands for “not determined.”

Chain of KRas G12D (P01116 other isoform, or with tags, fused parts or gaps G12D): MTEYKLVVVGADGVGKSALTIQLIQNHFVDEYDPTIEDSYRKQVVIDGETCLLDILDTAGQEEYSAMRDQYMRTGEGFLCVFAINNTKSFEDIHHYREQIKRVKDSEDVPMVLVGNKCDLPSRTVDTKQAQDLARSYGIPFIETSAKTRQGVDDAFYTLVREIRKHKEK

| SMILES | IC50 |
| --- | --- |
| CC(C)c1cccc(C(C)C)c1-c1ncc2c(N3C[C@H]4CC[C@@H](C3)N4)nc(OCC34CCCN3CC(F)C4)nc2c1F (stereo partly drawn) [Example 394, 4-((1R,5S)-3,8-diazabicyclo[3.2.1]octan-3-yl)-7-(2,6-diisopropylphenyl)-8-fluoro-2-((2-fluorotetrahydro-1H-pyrrolizin-7a(5H)-yl)methoxy)pyrido[4,3-d]pyrimidine] | 2500 nM |
| CN1CCC(F)(COc2nc(N3C[C@H]4CC[C@@H](C3)N4)c3cnc(-c4cccc5cccc(Cl)c45)c(F)c3n2)CC1 [Example 398, 4-((1R,5S)-3,8-diazabicyclo[3.2.1]octan-3-yl)-7-(8-chloronaphthalen-1-yl)-8-fluoro-2-((4-fluoro-1-methylpiperidin-4-yl)methoxy)pyrido[4,3-d]pyrimidine] | 593 nM |
| Oc1cc(-c2ncc3c(N4C[C@H]5CC[C@@H](C4)N5)nc(OCC45CCCN4C(CF)CC5)nc3c2F)c2c(Cl)cccc2c1 (stereo partly drawn) [Example 400, 4-(4-((1R,5S)-3,8-diazabicyclo[3.2.1]octan-3-yl)-8-fluoro-2-((3-(fluoromethyl)tetrahydro-1H-pyrrolizin-7a(5H)-yl)methoxy)pyrido[4,3-d]pyrimidin-7-yl)-5-chloronaphthalen-2-ol] | 4.2 nM |
| CC(C)c1ccc(O)cc1-c1ncc2c(N3C[C@H]4CC[C@@H](C3)N4)nc(OCC34CCCN3CCC4)nc2c1F [Example 403, 3-(4-((1R,5S)-3,8-diazabicyclo[3.2.1]octan-3-yl)-8-fluoro-2-((tetrahydro-1H-pyrrolizin-7a(5H)-yl)methoxy)pyrido[4,3-d]pyrimidin-7-yl)-4-isopropylphenol] | 1.9 nM |
| COC1(OC)CN2CCCC2(COc2nc(N3C[C@H]4CC[C@@H](C3)N4)c3cnc(-c4cccc5cccc(Cl)c45)c(F)c3n2)C1 (stereo partly drawn) [Example 404, 4-((1R,5S)-3,8-diazabicyclo[3.2.1]octan-3-yl)-7-(8-chloronaphthalen-1-yl)-2-((2,2-dimethoxytetrahydro-H-pyrrolizin-7a(5H)-yl)methoxy)-8-fluoropyrido[4,3-d]pyrimidine] | 60.8 nM |
| CN(C)C(=O)OC[C@H]1CC[C@@]2(COc3nc(N4CC5CCC(C4)N5)c4cnc(-c5cccc6cccc(Cl)c56)c(F)c4n3)CCCN12 [Example 405, (7a-(((4-(3,8-diazabicyclo[3.2.1]octan-3-yl)-7-(8-chloronaphthalen-1l-yl)-8-fluoropyrido[4,3-d]pyrimidin-2-yl)oxy)methyl)hexahydro-1H-pyrrolizin-3-yl)methyl dimethylcarbamate] | 2.2 nM |
| CNC(=O)OC[C@H]1CC[C@@]2(COc3nc(N4CC5CCC(C4)N5)c4cnc(-c5cccc6cccc(Cl)c56)c(F)c4n3)CCCN12 [Example 408, (7a-(((4-(3,8-diazabicyclo[3.2.1]octan-3-yl)-7-(8-chloronaphthalen-1-yl)-8-fluoropyrido[4,3-d]pyrimidin-2-yl)oxy)methyl)hexahydro-1H-pyrrolizin-3-yl)methyl methylcarbamate] | 3.1 nM |
| COC(=O)NC[C@H]1CC[C@@]2(COc3nc(N4CC5CCC(C4)N5)c4cnc(-c5cccc6cccc(Cl)c56)c(F)c4n3)CCCN12 [Example 411, methyl ((7a-(((4-(3,8-diazabicyclo[3.2.1]octan-3-yl)-7-(8-chloronaphthalen-1-yl)-8-fluoropyrido[4,3-d]pyrimidin-2-yl)oxy)methyl)hexahydro-1H-pyrrolizin-3-yl)methyl)carbamate] | 17 nM |
| CN(C)C(=O)NC[C@H]1CC[C@@]2(COc3nc(N4CC5CCC(C4)N5)c4cnc(-c5cccc6cccc(Cl)c56)c(F)c4n3)CCCN12 [Example 412, 3-((7a-(((4-(3,8-diazabicyclo[3.2.1]octan-3-yl)-7-(8-chloronaphthalen-1-yl)-8-fluoropyrido[4,3-d]pyrimidin-2-yl)oxy)methyl)hexahydro-1H-pyrrolizin-3-yl)methyl)-1,1-dimethylurea] | 17.7 nM |

From patent US20230279025A1, “KRAS G12D INHIBITORS” (Mirati Therapeutics, Inc., priority 2020, published 2023)
